Usually pIC50 stands for the negative decadic logarithm of the IC50, by convention in mol/L. As a reminder, the pKi is the negative decadic logarithm of the Ki, by convention in mol/L.

pIC50, pKi: −log10 of the molar value.

The values that follow come from US20150315188A1, “COMPOUNDS AND METHODS FOR TREATMENT OF HYPERTENSION” (MEDIVATION TECHNOLOGIES, INC., priority 2012, published 2015).

Test [1] concerns the target T1, Human adrenergic α1B receptor (Homo sapiens, UniProt P35368).
T1 sequence (P35368 1-520): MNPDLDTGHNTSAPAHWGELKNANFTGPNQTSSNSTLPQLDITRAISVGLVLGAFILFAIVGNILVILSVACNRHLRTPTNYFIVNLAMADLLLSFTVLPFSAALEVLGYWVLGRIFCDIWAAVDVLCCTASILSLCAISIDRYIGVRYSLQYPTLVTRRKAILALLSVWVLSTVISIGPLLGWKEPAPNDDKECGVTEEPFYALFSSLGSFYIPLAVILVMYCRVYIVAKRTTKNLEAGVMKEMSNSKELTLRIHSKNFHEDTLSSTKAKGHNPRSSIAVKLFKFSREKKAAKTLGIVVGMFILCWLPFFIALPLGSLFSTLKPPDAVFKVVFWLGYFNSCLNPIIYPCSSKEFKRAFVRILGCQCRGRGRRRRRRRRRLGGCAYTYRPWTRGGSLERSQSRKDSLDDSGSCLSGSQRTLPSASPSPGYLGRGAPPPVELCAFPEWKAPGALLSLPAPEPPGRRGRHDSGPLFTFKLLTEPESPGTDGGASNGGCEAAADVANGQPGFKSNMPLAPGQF
The test can be described thus: Radioligand binding, adrenergic α1B (Protocol Group B). As to conditions: Protocol Group B; for Percentage inhibition of ligand binding, Adrenergic α1B (0.1 μM): 0.1 μM compound; for Percentage inhibition of ligand binding, Adrenergic α1B (0.3 μM): 0.3 μM compound; for pKi: estimated Ki. Set-up: purchased Milipore (Millipore). The method, boiled down: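 Values are percent inhibition of specific [3H]prazosin (0.3 nM) binding or estimated Ki, from filtration counting. Human α1B recombinant membranes, Tris-HCl pH 7.4 buffer with MgCl2 and EDTA, 60 min at 25 °C, 1% DMSO vehicle; 10 μM prazosin defined nonspecific binding.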

Test [2] deals with T2, Human adrenergic α2A receptor (Homo sapiens, UniProt P08913).
T2 sequence (P08913 1-465): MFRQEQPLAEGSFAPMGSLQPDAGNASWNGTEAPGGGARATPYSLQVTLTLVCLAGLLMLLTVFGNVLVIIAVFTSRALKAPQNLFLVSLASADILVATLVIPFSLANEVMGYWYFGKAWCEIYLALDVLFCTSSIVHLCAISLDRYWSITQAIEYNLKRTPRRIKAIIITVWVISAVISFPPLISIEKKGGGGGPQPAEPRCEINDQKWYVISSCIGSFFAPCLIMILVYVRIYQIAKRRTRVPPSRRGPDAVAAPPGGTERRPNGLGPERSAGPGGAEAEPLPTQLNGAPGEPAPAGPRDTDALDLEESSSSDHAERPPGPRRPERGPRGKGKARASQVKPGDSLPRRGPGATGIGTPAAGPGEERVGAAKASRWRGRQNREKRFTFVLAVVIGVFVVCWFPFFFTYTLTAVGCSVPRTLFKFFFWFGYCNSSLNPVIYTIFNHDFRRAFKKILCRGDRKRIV
The test can be described thus: Radioligand binding, adrenergic α2A (Protocol Group B). Also on record: purchased Milipore (Millipore). As to conditions: Protocol Group B; for Percentage inhibition of ligand binding, Adrenergic α2A (0.1 μM): 0.1 μM compound; for Percentage inhibition of ligand binding, Adrenergic α2A (0.3 μM): 0.3 μM compound; for pKi: estimated Ki. Summed up:
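Compounds (1% DMSO vehicle, various concentrations) competed against 2 nM [^3H]MK-912 on recombinant receptor membranes for 60 min at 25° C, Tris-HCl pH 7.4 buffer with Mg2+, Ca2+, BSA. Bound radioligand filtered and counted; 10 μM rauwolscine set nonspecific binding. Values: percent inhibition of specific binding or estimated Ki.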

The target of test [3] is T2, Human adrenergic α2A receptor. The test can be described thus: β-Arrestin GPCR functional assay, adrenergic α2A (Protocol B). The class given is cell-based. As to conditions: β-arrestin, antagonist vs nor-epinephrine EC80. How it is done: (§1) To evaluate the activity of compounds in β-Arrestin GPCR functional assays, recombinant CHO cell line (DiscoveRX), over expressed with human adrenergic α2A receptor were used. The experiment was done with kit of DiscoveRX as per recommended protocol of the supplier. Cells were harvested from culture flask using cell dissociation solution (CDS) and plated at a density of 12,000 cells/well in CP reagent (supplied with the kit) in a half area 96-well white polystyrene plate. After 24 h incubation at 37° C., compounds at various concentrations in 1% (final) DMSO were charged to the cells for 30 min at 37° C. Active nor-epinephrine (-NE) at its EC80 concentrations (270 nM) were then added to the cells and incubated for another 90 min at 37° C. Detection mix was prepared by mixing of Path Hunter cell assay buffer, Emerald II solution and Galactone star solution in a ratio of 19:5:1 and incubated with the cells for 60 min at RT in the dark. The reading was taken in Envision at luminescence mode. Biochemical assay results are presented as the percent Inhibition in Table B2a, or IC50 values in Table B2b.

Test [4] has as its target T3, Human adrenergic α2B receptor (Homo sapiens, UniProt P18089).
T3 sequence (P18089 1-450): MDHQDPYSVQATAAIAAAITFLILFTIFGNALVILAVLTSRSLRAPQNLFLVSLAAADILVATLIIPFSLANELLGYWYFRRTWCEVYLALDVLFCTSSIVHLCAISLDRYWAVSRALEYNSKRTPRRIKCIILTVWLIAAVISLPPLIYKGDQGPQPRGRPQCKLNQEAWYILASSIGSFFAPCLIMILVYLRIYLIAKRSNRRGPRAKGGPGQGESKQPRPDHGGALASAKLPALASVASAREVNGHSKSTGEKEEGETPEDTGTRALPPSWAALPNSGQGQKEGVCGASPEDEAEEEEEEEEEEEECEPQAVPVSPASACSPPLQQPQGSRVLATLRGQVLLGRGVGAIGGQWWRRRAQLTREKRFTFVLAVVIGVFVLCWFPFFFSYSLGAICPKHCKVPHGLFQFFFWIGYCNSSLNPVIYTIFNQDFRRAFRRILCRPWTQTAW
Kind of test: β-Arrestin GPCR functional assay, adrenergic α2B (Protocol B). The conditions noted are these: β-arrestin, antagonist vs nor-epinephrine EC80; read-out: IC50 Adrenergic α2B. The test is classed as cell-based. The method, then:
as §1, with “α2B” for “α2A”, “(50” for “(270”

Test [5] concerns the target T3, Human adrenergic α2B receptor. The test can be described thus: Radioligand binding, adrenergic α2B (Protocol Group B). As to conditions: Protocol Group B; for Percentage inhibition of ligand binding, Adrenergic α2B (10 nM): 10 nM compound, 0.01 µM; for Percentage inhibition of ligand binding, Adrenergic α2B (30 nM): 30 nM compound, 0.03 µM; for Percentage inhibition of ligand binding, Adrenergic α2B (0.1 μM): 0.1 μM compound; for pKi: estimated Ki, read-out: Ki α2B. Set-up: purchased Milipore (Millipore). The method, boiled down: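 Compounds at various concentrations in 1% DMSO were tested on recombinant membranes in Tris-HCl pH 7.4 buffer containing MgCl2, CaCl2 and 0.2% BSA.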

Regarding `Cc1ccc2c(c1)c1c(n2CC(C)(O)c2cccnc2)CC2CCCN2C1` (single isomer, unassigned) [38c], in test [1], the “Percentage inhibition of ligand binding, Adrenergic α1B (0.1 μM)” value is 2% and the “Percentage inhibition of ligand binding, Adrenergic α1B (0.3 μM)” value is reported as 23%. Also, in test [2], the “Percentage inhibition of ligand binding, Adrenergic α2A (0.1 μM)” value amounted to 7% and the “Percentage inhibition of ligand binding, Adrenergic α2A (0.3 μM)” value is 31%. Besides, in test [3], the pIC50 was 5.11. Also, in test [4], the pIC50 is 6.44. In test [5], the “Percentage inhibition of ligand binding, Adrenergic α2B (10 nM)” value (“Percentage inhibition … (10 nM)” for short) was 43%; the “Percentage inhibition of ligand binding, Adrenergic α2B (30 nM)” value (“Percentage inhibition … (30 nM)” for short) was 71%; the “Percentage inhibition of ligand binding, Adrenergic α2B (0.1 μM)” value came to 92%.

As for `Cc1cc(F)c2c(c1)c1c(n2CC(C)(O)c2ccncc2)CCN2CCCC12` (single isomer, unassigned) [81b], in test [1], the “Percentage inhibition of ligand binding, Adrenergic α1B (0.1 μM)” value came to 49%; the “Percentage inhibition of ligand binding, Adrenergic α1B (0.3 μM)” value is on record as 76%; the pKi was 7.45. Moreover, in test [2], the “Percentage inhibition of ligand binding, Adrenergic α2A (0.1 μM)” value amounted to 68%; the “Percentage inhibition of ligand binding, Adrenergic α2A (0.3 μM)” value turned out to be 85%; the pKi is 7.56. Moreover, the pIC50 in test [3] is 5.78. In addition, the pIC50 in test [4] is 7.82. Besides, in test [5], the “Percentage inhibition … (10 nM)” value is 98%; the “Percentage inhibition … (30 nM)” value was found to be 100%; the “Percentage inhibition of ligand binding, Adrenergic α2B (0.1 μM)” value worked out at 100%; the pKi is 9.03.

As to `Cc1ccc2c(c1F)c1c(n2CC(C)(O)c2cccnc2)CCN2CCCC12` (single isomer, unassigned) [87c], in test [1], the “Percentage inhibition of ligand binding, Adrenergic α1B (0.1 μM)” value is listed as 62%; the “Percentage inhibition of ligand binding, Adrenergic α1B (0.3 μM)” value amounted to 86%; the pKi was 7.58. In addition, in test [2], the “Percentage inhibition of ligand binding, Adrenergic α2A (0.1 μM)” value stood at 85%; the “Percentage inhibition of ligand binding, Adrenergic α2A (0.3 μM)” value turned out to be 94%; the pKi was 8.05. For the same compound, in test [3], the pIC50 was 6.10. The negative-log IC50 (pIC50) in test [4] is 7.89. For the same compound, in test [5], the “Percentage inhibition … (10 nM)” value amounted to 96%; the “Percentage inhibition … (30 nM)” value is recorded as 99%; the pKi is 9.04.

`Cc1ccc2c(c1F)c1c(n2CC(C)(O)c2cccnc2)CCN2CCCC12` (single isomer, unassigned) [87d]: in test [1], the “Percentage inhibition of ligand binding, Adrenergic α1B (0.1 μM)” value stood at 34% and the “Percentage inhibition of ligand binding, Adrenergic α1B (0.3 μM)” value is on record as 67%. In test [2], the “Percentage inhibition of ligand binding, Adrenergic α2A (0.1 μM)” value amounted to 57%; the “Percentage inhibition of ligand binding, Adrenergic α2A (0.3 μM)” value is on record as 79%; the pKi was 7.26. In test [3], this compound had a pIC50 of 5.43. Besides, the negative logarithm of the IC50 (pIC50) in test [4] was 7.36. In test [5], the “Percentage inhibition … (10 nM)” value turned out to be 87%; the “Percentage inhibition … (30 nM)” value was 97%; the pKi is 8.81.

Consider `CC(O)(Cn1c2c(c3cc(F)cc(Cl)c31)C1CCCN1CC2)c1cccnc1` (single isomer, unassigned) [89d], for which, in test [1], the “Percentage inhibition of ligand binding, Adrenergic α1B (0.1 μM)” value was 15% and the “Percentage inhibition of ligand binding, Adrenergic α1B (0.3 μM)” value was 54%. Moreover, in test [2], the “Percentage inhibition of ligand binding, Adrenergic α2A (0.1 μM)” value was 74%; the “Percentage inhibition of ligand binding, Adrenergic α2A (0.3 μM)” value stood at 99%; the pKi was 7.58. In addition, the pIC50 in test [3] was 5.71. In test [5], the “Percentage inhibition … (10 nM)” value is reported as 104%; the “Percentage inhibition … (30 nM)” value is reported as 115%; the pKi was 9.07.

Take `Cc1cc(F)cc2c3c(n(CC(O)c4ccncc4)c12)CCN1CCCC31` (single isomer, unassigned) [136b]: in test [1], the “Percentage inhibition of ligand binding, Adrenergic α1B (0.1 μM)” value is on record as 24% and the “Percentage inhibition of ligand binding, Adrenergic α1B (0.3 μM)” value is 63%. In addition, in test [2], the “Percentage inhibition of ligand binding, Adrenergic α2A (0.1 μM)” value was determined as 45% and the “Percentage inhibition of ligand binding, Adrenergic α2A (0.3 μM)” value is 72%. Besides, in test [4], the pIC50 was 7.17. In test [5], the “Percentage inhibition … (10 nM)” value was 76%; the “Percentage inhibition … (30 nM)” value turned out to be 96%; the pKi was 8.61.
